In patent US20190231745A1, “INHIBITORS OF T CELL RECEPTOR AND USES THEREOF” (Consejo Superior De Investigaciones Cientificas, priority 2017, published 2019):
Where a name gives a salt, the structure may show the parent alone.

What was measured:
[1] = system: B8R-reactive CD8 T cells in immunized mice; conditions: 10 or 40 mg/kg daily, 7 days
[2] = system: human peripheral blood T cells stimulated with anti-CD3; assay: Human blood T cell proliferation induced by anti-CD3 (CFSE dilution); assay type: cell-based
[3] = system: murine naïve spleen B cells; assay: B cell proliferation (CellTrace Violet); assay type: cell-based, mouse
Method: (§1) FIG. 2. Target specificity of AX-024. […] The experiment was repeated three times. […] RUs, response units.
Proliferation was calculated according to the total number of cell divisions (by Cell-Trace Violet dilution).

[4] = target: CD3ε PRS peptide binding to immobilized SH3.1(Nck1) domain (Homo sapiens, UniProt P16333); assay: Surface plasmon resonance; conditions: SPR, maximum steady-state response units; read-out: IC50 for the inhibition of CD3ε peptide binding
Method: as §1
HBS-EP was used as the running buffer (10 mM HEPES [pH 7.4], 150 mM NaCl, 3 mM EDTA, 0.005% [v/v] Surfactant P20). Immobilization of the GST-Nck1(SH3.1) purified recombinant protein (final concentration 30 μg/ml) was performed by the amino coupling strategy using sodium acetate (10 mM) at pH 4.5 and 150 μL of a solution of EDC/NHS (v/v), with optimum immobilization achieved at approximately 5000 resonance units. For interaction experiments, increasing concentrations of the CD3ε peptide […] and AX-024 were used on the same chip. In all cases, the flow rate was […]. After each interaction, 2.5 M glycine (pH 2) was used to regenerate the surface, and the analyte response after regeneration was constant after repeated injections in all the experiments and within ±10% of the response following the first injection.

[5] = system: Nck recruitment to the TCR; assay: Co-immunoprecipitation of endogenous Nck with the TCR; assay type: cell-based; conditions: human blood T cells stimulated with anti-CD3
Method: as §1
For co-immunoprecipitation analysis of endogenous Nck, a total of […] enriched human blood T-cells were pre-incubated in serum-free RPMI medium with compound AX-024 before stimulation with soluble OKT3 (10 μg/ml) for 1 minute at 37° C. Cells were lysed as above, and immunoprecipitation was performed with OKT3 and protein A Sepharose beads. The resulting immunoprecipitated extracts were resolved in a 10% acrylamide SDS-PAGE gel for immunoblotting with a rabbit anti-Nck antibody and reprobed with anti-CD3ζ serum.

[6] = system: intracellular F-actin in human blood T cells; assay: TCR-triggered actin polymerization (phalloidin staining); assay type: cell-based; conditions: T-cell, read-out: IC50 of inhibition of the anti-CD3 elicited increase of intracellular F-actin
[7] = system: purified human blood T cells stimulated with anti-CD3; assay: Microarray analysis of gene expression; assay type: cell-based; conditions: 1 nM, anti-CD3 4 hours, two donors
Method: RNA was extracted using the RNAeasy kit according to the manufacturer's instructions (QIAGEN 74134) and its integrity was assessed using an Agilent 2100 Bioanalyzer (Agilent). Labelling and hybridization were performed according to the protocols from Affymetrix. Briefly, 100 ng of total RNA were amplified and labelled using the WT Plus reagent kit (Affymetrix) and then hybridized to Human Gene 2.0 ST Array (Affymetrix). Washing and scanning were performed using the Affymetrix GeneChip System (GeneChip Hybridization Oven 645, GeneChip Fluidics Station 450 and GeneChip Scanner 7G).

[8] = system: CD-1 mice; assay: Acute toxicity, single intraperitoneal injection; assay type: in vivo, mouse; conditions: single intraperitoneal injection 2.8, 14, 70, 350 mg/kg
Source text: (§2) FIG. S7. Toxicity of AX-024 in mice and rats. (A) Effect of distinct single doses of AX024. HCl administered intraperitoneally on body weight gain of CD-1 mice over 14 days. The data represent the mean±s.e.m. (n=10 per group). (B) Effect of distinct single doses of AX024. HCl administered orally on body weight gain of Swiss albino mice over 14 days. The data represent the mean±s.e.m. (n=2 per group). (C) Effect of distinct single doses of AX-024. HCl administered per orally on body weight gain of Sprague Dawley rats over 14 days. The data represent the mean±s.e.m. (n=2 per group). (D) Summary of acute toxicological findings in different species and calculation of the human equivalent dose.
Acute toxicity: Eight-week-old CD-1 mice were injected intraperitoneally with different amounts of the hydrochloride salt of AX-024 (AX-024.HCl) dissolved in 0.5 ml of saline. All animals were observed clinically for the appearance of macroscopically visible adverse reactions twice daily over 14 days, as well as immediately after AX-024 administration. A necropsy was carried out on each animal on day 14, and the abdominal, thoracic, and cranial cavities were examined in situ, together with their associated organs.

[9] = system: Swiss albino mice; assay: Toxicity after single oral dose, mice; assay type: in vivo, mouse
Source text: as §2

[10] = system: Sprague Dawley rats; assay: Toxicity after single oral dose, rats; assay type: in vivo
Source text: as §2

[11] = system: thymocytes of 4 week-old C57BL/6 mice; assay: Thymocyte differentiation in vivo; set-up: species or system mouse; conditions: administration for 10 days to 4-week-old mice
Method: FIG. S8. Effect of AX-024 on thymocyte differentiation. (A) Flow cytometry analysis of CD24 and TCR expression in thymocytes of 4 week-old C57BL/6 mice exposed to daily doses of oral AX-024 (10 mg/Kg and 40 mg/Kg) or to vehicle alone for 10 consecutive days. Both markers allowed the thymocytes to be divided into five subpopulations (a to e) that were reanalyzed according to CD4 and CD8 expression (right). The data below indicates the percentages of double negative (DN, CD4^− CD8^−), double positive (DP, CD4^+ CD8^+) and single positive (CDSP, CD4^+ CD8^−; CD8SP. CD4^− CD8^+) thymocytes within each a-to-e subpopulation. The data represent the mean±s.e.m. (n=6 mice per group). (B) Absolute cell number in the major thymic DN, DP, CD4SP, CD8SP subpopulations of mice analyzed in A. Numbers of pre- and post-beta selection (DN3 and DN4) and γδT cells are also indicated

[12] = system: EAE in MOG-immunized mice; assay: EAE model, therapeutic treatment; assay type: in vivo, mouse; conditions: oral, therapeutic setting
[13] = system: ectromelia virus (ECTV); conditions: mouse, in vivo

| SMILES | activation of CD8 T cell response to the viral epitope (IFN-γ production) [1] | concentration at which inhibitory effects were shown ([2]; T cell proliferation, anti-CD3) [pM] | potency relative to the AX-000 hit in inhibition of TCR-triggered T cell proliferation ([2]; more potent than AX-000) | B cell proliferation induced by TLR4 agonist LPS ([3]; LPS) | B cell proliferation induced by anti-CD40 ([3]; anti-CD40) | BCR-triggered B cell proliferation ([3]; anti-IgM stimulation, concentrations as high as 10 μM) | IC50 [4] [nM] | concentrations at which Nck recruitment to the TCR was inhibited (dose-dependent) [5] [nM] | IC50 [6] [nM] | number of genes transcriptionally downregulated [7] [genes] | body weight gain ([8]; 14 days) | adverse reactions ([8]; followed 14 days) | single oral doses without any adverse effects on body weight, organ size or lesions [9] [mg/kg] | toxicity for rodents after single administration ([10]; doses as high 1600 mg/kg) | single oral doses without any adverse effects on body weight, organ size or lesions ([10]; rats, oral) [mg/kg] | thymocyte subset numbers [11] | neurological score reached [12] | percentage of IFN-γ responding CD8 T cells upon ex vivo B8R stimulation [13] | survival of rechallenge with lethal dose 60 days later [13] | survival rates, first challenge [13] |
| --- | --- | --- | --- | --- | --- | --- | --- | --- | --- | --- | --- | --- | --- | --- | --- | --- | --- | --- | --- | --- |
| COc1ccc2c(c1)C(c1ccc(F)cc1)=C(CN1CCCC1)CO2 [AX-024.HCl] | Neither dose of the drug significantly inhibited |  |  |  |  |  |  |  |  |  |  |  |  |  |  |  |  |  |  |  |
| COc1ccc2c(c1)C(c1ccc(F)cc1)=C(CN1CCCC1)CO2 [AX-024] |  | ≤ 1 | > 10,000 fold | not inhibited | not inhibited | not inhibited | ~1 | ≥ 1 | 1 | 1093 | all mice gained weight at a similar rate | no significant adverse reactions | ≤ 400 | not toxic | ≤ 1600 | did not have a significant impact | 0 | indistinguishable from that of the vehicle group | resisted the lethal dose, regardless of their AX-024 treatment history | did not influence survival rates |
| CCCCCCCCc1ccc(CCC(N)(CO)CO)cc1 [fingolimod, reference compound] |  |  |  |  |  |  |  |  |  |  |  |  |  |  |  |  | 0 |  |  |  |
